One experiment has as its system P388. The experiment can be described thus: transplanted tumor in mice: P388. It counts as in vivo. The settings on record: every fourth day (three doses). As for the experimental part: (§1) The bases of this invention and their salts preparable by the processes disclosed herein are active also in vivo against some but not all transplanted tumors in mice.
(§2) The following table--Table 2--gives the results of this experiment in which mice bearing the transplanted tumor were treated with a compound of this invention. In the table, column 1 gives the name of the compound; column 2, the name of the tumor; column 3, the dosage given; and column 4, the percent inhibition of tumor growth (I) or prolongation of life (PL). The following dosage regimen was employed: every fourth day (three doses) starting on the first day after inoculation.

The test system of the next experiment is P388/V. The experiment can be described thus: transplanted tumor in mice: P388/V. The class given is in vivo. The note with it: every fourth day (three doses). As for the experimental part: as §1, §2
Experiment [1] has as its system Chinese hamster ovary cells. The experiment can be described thus: standard mitotic inhibition test employing Chinese hamster ovary cells. It counts as cell-based. The settings on record: dose 20-2 mcg/ml for accumulation in mitosis; CHO cells. An excerpt:
As previously stated, the compounds of this invention are antimitotics, and can adversely affect the growth of malignant cells. This activity is manifested in a standard mitotic inhibition test employing Chinese hamster ovary cells.
In the Table, column 1 gives the name of the compound, column 2 gives the dose in mcg/ml for accumulation in mitosis and column 3, the percent mitotic accumulation as a range.

In the case of `CC[C@]1(O)C[C@H]2CN(CCc3c([nH]c4ccccc34)[C@@](C(=O)OC)(c3cc4c(cc3OC)N(C)[C@H]3[C@]5(OC(=O)N(CCS)C5=O)[C@H](O)[C@]5(CC)C=CCN6CC[C@]43[C@@H]65)C2)C1` [4-desacetyl vinblastine 3"-(β-thioethyl)-3-spiro-5"-oxazolidine-2",4"-dione], the “Percent Prolongation of life (PL)” value with P388 (P388, 1.0 mg/kg) came out at 52%; in the experiment on P388 (P388, 1.2 mg/kg), 65%; with P388 (P388, 1.4 mg/kg) it was 77%.

As to `CC[C@]1(O)C[C@H]2CN(CCc3c([nH]c4ccccc34)[C@@](C(=O)OC)(c3cc4c(cc3OC)N(C)[C@H]3[C@]5(OC(=O)N(CCSSCCNC(=O)OC)C5=O)[C@H](OC(C)=O)[C@]5(CC)C=CCN6CC[C@]43[C@@H]65)C2)C1` [Example 1, Vinblastine 3"-(β-[β-(methoxycarbonylamino)ethyldithio]ethyl)-3-spiro-5"-oxazolidine-2",4"-dione], the “Percent Prolongation of life (PL)” value in the experiment with P388/V (1.5 mg/kg) was determined as 30%; in the experiment on P388/V (2.0 mg/kg, * = below 30, not statistically significant) it was 25%. For the same compound, the “percent mitotic accumulation as a range” value in experiment [1] was 7-10%.

Turning to `CC[C@]1(O)C[C@H]2CN(CCc3c([nH]c4ccccc34)[C@@](C(=O)OC)(c3cc4c(cc3OC)N(C)[C@H]3[C@]5(OC(=O)N(CCS)C5=O)[C@H](OC(C)=O)[C@]5(CC)C=CCN6CC[C@]43[C@@H]65)C2)C1` [Example 2, Vinblastine 3"-(β-thioethyl)-3-spiro-5"-oxazolidine-2",4"-dione], the “percent mitotic accumulation as a range” value in experiment [1] was 10-15%.

The values are drawn from patent US4362664A, “Vinblastine oxazolidinedione disulfides and related compounds” (priority 1980, dated 1982).
